Experimental data published in PMC7515950, “Physiologically based pharmacokinetic modeling to assess metabolic drug–drug interaction risks and inform the drug label for fedratinib” (Cancer Chemotherapy and Pharmacology, 2020).
Values joined by “and” are separate entries in the source; they are usually repeats but may differ in a detail not shown here. Equal entries are not always repeated. Where two headings read alike, the source gives them in different places.

Legend:
[1] = In vitro binding to human plasma proteins (Study LPR1082); assay type: in vitro ADME; details: mainly bound to α1-acid glycoprotein, read-out: fu (unbound fraction in plasma)
Source text: The physicochemical properties and blood binding parameters of fedratinib including molecular weight, logP, pKa, fu, and B/P were experimentally measured and listed in Table 1.

[2] = PBPK parameter estimation in Simcyp (retrograde modeling, QGut, Peff, F, Fg, CLAdd); set-up: species or system human; details: for CLint,CYP2C19 / CLint,CYP2D6 / CLint,CYP3A4: retrograde modeling, healthy subjects
Source text: Using the retrograde modeling tool provided within Simcyp®, the intrinsic enzyme clearance (CLint) values were optimized by minimizing the differences between the model-predicted and clinically observed dose-normalized AUCinf (see Supplemental Material SM2—Metabolism Parameters), with the fractions of metabolism of CYP3A4 (fmCYP3A4) and additional hepatic enzymes (fmHLM,add) refined by the parameter sensitivity analysis on accumulation ratio for repeated-dose clinical studies (see Supplemental Material SM8). The renal clearance (CLR) and additional systemic clearance (CLadd) were provided as input parameters estimated from the clinical data (see Supplemental Material SM2—Excretion Parameters). The PBPK distribution parameters (including Vss, Vsac, and Q) were directly derived from the compartmental modeling of plasma PK data obtained from healthy subjects administered 500 mg fedratinib single doses, and then provided as input parameters without further modifications (see Supplemental Material SM2—Distribution Parameters).
By default, the QGut is set to be the mean value (i.e., 6.5 L/h) in the PBPK model of fedratinib.
As CYP3A4 is the dominant form of CYP3A in the liver, all metabolic contribution from CYP3A was assigned to CYP3A4 in this PBPK model. The default “Healthy Volunteers” population was used for the retrograde modeling. […] The Fg value required for retrograde modeling was initially set as default 1 and then adjusted to ~0.8 based on model prediction. […] The clearance values derived above for fedratinib in healthy subjects were assumed to be the same for cancer patients including myelofibrosis (MF) patients and patients with refractory solid tumors.
The biliary excretion of unchanged drug accounts for 2.3% of the total intravenous dose in bile-duct cannulated (BDC) rats.

[3] = healthy subjects, cited from earlier work; for AUC (AUCinf) / Cmax: observation, ref Study TDU12620/INT12894
[4] = cited from earlier work
[5] = system: cryopreserved human hepatocytes; assay: Contribution of metabolic enzymes in cryopreserved human hepatocytes (MIH0888); assay type: in vitro ADME; details: 1 µM fedratinib
BCRP = target: T1, BCRP (Homo sapiens, UniProt Q9UNQ0); assay: BCRP inhibition, vesicle-based (TRI0013); assay type: in vitro ADME
T1 sequence (Q9UNQ0 1-655): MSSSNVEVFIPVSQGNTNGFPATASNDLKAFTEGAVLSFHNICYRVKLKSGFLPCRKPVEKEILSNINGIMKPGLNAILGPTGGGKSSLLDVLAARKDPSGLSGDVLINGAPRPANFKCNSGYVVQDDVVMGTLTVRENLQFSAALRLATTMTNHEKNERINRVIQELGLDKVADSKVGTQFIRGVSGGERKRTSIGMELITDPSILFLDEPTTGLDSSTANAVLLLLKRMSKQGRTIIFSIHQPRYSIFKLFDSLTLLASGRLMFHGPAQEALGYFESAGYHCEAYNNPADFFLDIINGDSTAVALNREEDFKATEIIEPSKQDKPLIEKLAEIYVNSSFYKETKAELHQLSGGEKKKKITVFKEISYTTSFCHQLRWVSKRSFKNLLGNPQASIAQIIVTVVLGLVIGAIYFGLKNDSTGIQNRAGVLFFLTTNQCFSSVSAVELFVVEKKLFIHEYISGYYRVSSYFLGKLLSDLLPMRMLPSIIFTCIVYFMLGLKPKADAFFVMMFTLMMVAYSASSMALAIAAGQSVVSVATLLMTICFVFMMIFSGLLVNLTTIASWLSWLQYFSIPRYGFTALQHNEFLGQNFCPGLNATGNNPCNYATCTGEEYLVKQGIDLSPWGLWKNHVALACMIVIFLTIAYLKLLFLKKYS
Source text: The reported IC50 values were converted to Ki values using the Cheng-Prusoff equation [10]:
The transporter inhibition parameters (Ki) for fedratinib were derived from the experimentally determined IC50 values using the Cheng-Prusoff equation, i.e., Ki = IC50/(1+[S]/Km) with the substrate concentrations ([S]) reported in the experimental studies and the substrate Km values collected from literature, as summarized in Table 13.

[6] = set-up: method as in PMID 32248324; details: healthy subjects, observation, cited from earlier work; for AUC GM Ratio (90% CI): 300 mg single dose with vs without ketoconazole 200 mg BID, AUCinf
[7] = 300 mg QD, MF patients, Day 1, observation, GM
[8] = 300 mg QD, MF patients, Day 1, observation, Mean (SD)
[9] = 300 mg QD, MF patients, steady state, observation, GM
[10] = 300 mg QD, MF patients, steady state, observation, Mean (SD)
[11] = 400 mg QD, MF patients, Day 1, observation, GM
[12] = 400 mg QD, MF patients, Day 1, observation, Mean (SD)
[13] = 400 mg QD, MF patients, steady state, observation, GM
[14] = 400 mg QD, MF patients, steady state, observation, Mean (SD)
[15] = 500 mg QD, MF patients, Day 1, observation, GM
[16] = 500 mg QD, MF patients, Day 1, observation, Mean (SD)
[17] = 500 mg QD, MF patients, steady state, observation, GM
[18] = 500 mg QD, MF patients, steady state, observation, Mean (SD)
[19] = clinical observation in MF patients
[20] = 300 mg single dose + ketoconazole 200 mg BID, GM
[21] = 300 mg single dose + ketoconazole 200 mg BID, Mean (SD)
[22] = 300 mg single dose alone, Mean (SD)

## Cc1cnc(Nc2ccc(OCCN3CCCC3)cc2)nc1Nc1cccc(S(=O)(=O)NC(C)(C)C)c1 [Fedratinib]
[1]
  fraction unbound: 0.05
[2]; human, oral, read-out: CLAdd (additional systemic clearance) (converted)
  clearance: ~11.2 mL/min
[2]; oral dose, assumed from rat data
  biliary excretion percentage assumed in humans: ~ 2%
[2]
  CLint,CYP2C19: 1.25 mL/min/pmol of isoform
  CLint,CYP2D6: 0.258 mL/min/pmol of isoform
  CLint,CYP3A4: 0.610 mL/min/pmol of isoform
[2]; listed as fedratinib
  CLint,CYP2C19: 1.25 μL/min/pmol of isoform and 1.253 μL/min/pmol of isoform
  CLint,CYP2D6: 0.258 μL/min/pmol of isoform
  CLint,CYP3A4: 0.610 μL/min/pmol of isoform
[2]; updated so that predicted dose-normalized AUC agrees with observation
  CLpo used for retrograde calculation: 48 L/h
[3]; 300 mg single dose, GM
  AUC (AUCinf): 6530 ng·h/mL
  Cmax: 497 ng/mL
[3]; 300 mg single dose, Mean (SD)
  AUC (AUCinf): 6730 (1990) ng/mL·h
  Cmax: 521 (189) ng/mL
[3]; 500 mg single dose, GM
  AUC (AUCinf): 13200 ng·h/mL
  Cmax: 683 ng/mL
[3]; 500 mg single dose, Mean (SD)
  AUC (AUCinf): 13900 (5240) ng/mL·h
  Cmax: 720 (243) ng/mL
[3]; single doses above 100 mg, ref [3]
  dose-normalized AUC: 30 ng·h/mL/mg
[4]; [7]
  AUC (AUCτ): 7020 ng·h/mL
  Cmax: 1070 ng/mL
[4]; [8]
  AUC (AUCτ): 9460 (7770) ng/mL·h
  Cmax: 1380 (1060) ng/mL
[4]; [9]
  AUC (AUCτ): 22400 ng·h/mL
  Cmax: 1530 ng/mL
[4]; [10]
  AUC (AUCτ): 25300 (14100) ng/mL·h
  Cmax: 1800 (1120) ng/mL
[4]; [11]
  AUC (AUCτ): 9130 ng·h/mL
  Cmax: 1290 ng/mL
[4]; [12]
  AUC (AUCτ): 9610 (3450) ng/mL·h
  Cmax: 1430 (754) ng/mL
[4]; [13]
  AUC (AUCτ): 26900 ng·h/mL
  Cmax: 1800 ng/mL
[4]; [14]
  AUC (AUCτ): 29100 (13500) ng/mL·h
  Cmax: 2020 (1250) ng/mL
[4]; [15]
  AUC (AUCτ): 9980 ng·h/mL
  Cmax: 1270 ng/mL
[4]; [16]
  AUC (AUCτ): 11300 (6060) ng/mL·h
  Cmax: 1420 (710) ng/mL
[4]; [17]
  AUC (AUCτ): 38700 ng·h/mL
  Cmax: 2540 ng/mL
[4]; [18]
  AUC (AUCτ): 44500 (24900) ng/mL·h
  Cmax: 2830 (1370) ng/mL
[4]; Study ARD11936 500 mg QD, MF patients, observed
  accumulation ratio, AUC: 3.9
[4]; [19]
  accumulation ratio, AUC: 2.9–3.2
  accumulation ratio, Cmax: 1.4–2.0
[5]
  hepatic metabolic clearance percentage, CYP2C19: 17% and ~ 17%
  hepatic metabolic clearance percentage, CYP2D6: 2% and ~ 2%
  hepatic metabolic clearance percentage, CYP3A: 63% and ~ 63%
  metabolic contribution to hepatic clearance, other liver enzymes: ~ 18%
BCRP; from IC50 by Cheng-Prusoff, probe methotrexate
  Ki: 27.8 µM
BCRP; probe methotrexate 100 μM
  IC50: 29.9 µM
[6]; [20]
  AUC (AUCinf): 25000 ng·h/mL
  Cmax: 741 ng/mL
[6]; [21]
  AUC (AUCinf): 26,800 (10,600) ng/mL·h
  Cmax: 812 (374) ng/mL
[6]; 300 mg single dose alone, GM
  AUC (AUCinf): 6460 ng·h/mL
  Cmax: 379 ng/mL
[6]; [22]
  AUC (AUCinf): 7440 (4060) ng/mL·h
  Cmax: 444 (262) ng/mL
[6]
  AUC GM Ratio (90% CI): 3.06 (2.46–3.80)
[6]; listed as fedratinib
  AUC GM Ratio (90% CI): 3.06
